SMILES strings stand for the structures. pIC50: −log10 of the molar value.

One assay has as its system GM1 production in Jurkat cells. Description: cells.
Conditions: not given
Format: cell-based.
Regarding `COc1cc2c(cc1-c1ccc(CC(C)C)cc1)CC(C)(C)C2NC(=O)O[C@@H]1CN2CCC1CC2` (stereo partly drawn) [Example 325, (S)-quinuclidin-3-yl (5-(4-isobutylphenyl)-6-methoxy-2,2-dimethyl-2,3-dihydro-1H-inden-1-yl)carbamate], the pIC50 (commonly −log10 of the IC50, conventionally taken in molar units) is 8.68.

The same assay, now with this note: Homo sapiens, Jurkat, 72 h.
Compound `CCCCOc1ccc(-c2cc3c(cc2OC)C(NC(=O)O[C@@H]2CN4CCC2CC4)C(C)(C)C3)cc1` (stereo partly drawn) [Example 324, (S)-quinuclidin-3-yl (5-(4-butoxyphenyl)-6-methoxy-2,2-dimethyl-2,3-dihydro-1H-inden-1-yl)carbamate] gave a pIC50 of 8.24.

As for `COc1cc2c(cc1-c1ccc(OCC3CC3)nc1)CC(C)(C)C2NC(=O)O[C@@H]1CN2CCC1CC2` (stereo partly drawn) [Example 326, (S)-quinuclidin-3-yl (5-(6-(cyclopropylmethoxy)pyridin-3-yl)-6-methoxy-2,2-dimethyl-2,3-dihydro-1H-inden-1-yl)carbamate], the pIC50 was 7.97. Compared with the last compound, the pIC50 is 0.27 log units lower.

With `COc1ccc(Cl)cc1-c1cc2c(cc1OC)C(NC(=O)O[C@@H]1CN3CCC1CC3)C(C)(C)C2` (stereo partly drawn) [Example 327, (S)-quinuclidin-3-yl (5-(5-chloro-2-methoxyphenyl)-6-methoxy-2,2-dimethyl-2,3-dihydro-1H-inden-1-yl)carbamate], the pIC50 was 7.77.

As for `CCCCc1ccc(-c2cc3c(cc2OC)C(NC(=O)O[C@@H]2CN4CCC2CC4)C(C)(C)C3)cc1` (stereo partly drawn) [Example 328, (S)-quinuclidin-3-yl (5-(4-butylphenyl)-6-methoxy-2,2-dimethyl-2,3-dihydro-1H-inden-1-yl)carbamate], the pIC50 was 7.94.

Compound `COc1cc2c(cc1-c1cc(C)c(OC)c(C)c1)CC(C)(C)C2NC(=O)O[C@@H]1CN2CCC1CC2` (stereo partly drawn) [Example 329, (S)-quinuclidin-3-yl (6-methoxy-5-(4-methoxy-3,5-dimethylphenyl)-2,2-dimethyl-2,3-dihydro-1H-inden-1-yl)carbamate] had a pIC50 of 7.18.

Consider `CCOc1c(C)cc(-c2cc3c(cc2OC)C(NC(=O)O[C@@H]2CN4CCC2CC4)C(C)(C)C3)cc1C` (stereo partly drawn) [Example 330, (S)-quinuclidin-3-yl (5-(4-ethoxy-3,5-dimethylphenyl)-6-methoxy-2,2-dimethyl-2,3-dihydro-1H-inden-1-yl)carbamate], for which the negative-log IC50 (pIC50) is 7.28.

`CCCCOc1c(C)cc(-c2cc3c(cc2OC)C(NC(=O)O[C@@H]2CN4CCC2CC4)C(C)(C)C3)cc1C` (stereo partly drawn) [Example 331, (S)-quinuclidin-3-yl (5-(4-butoxy-3,5-dimethylphenyl)-6-methoxy-2,2-dimethyl-2,3-dihydro-1H-inden-1-yl)carbamate] showed a negative-log IC50 (pIC50) of 7.65.

`COc1cc(-c2cc3c(cc2OC)C(NC(=O)O[C@@H]2CN4CCC2CC4)C(C)(C)C3)ccn1` (stereo partly drawn) [Example 332, (S)-quinuclidin-3-yl (6-methoxy-5-(2-methoxypyridin-4-yl)-2,2-dimethyl-2,3-dihydro-1H-inden-1-yl)carbamate] had a pIC50 of 6.80.

As to `COc1cc2c(cc1-c1cccc(F)c1)CC(C)(C)C2NC(=O)O[C@@H]1CN2CCC1CC2` (stereo partly drawn) [Example 333, (S)-quinuclidin-3-yl (5-(3-fluorophenyl)-6-methoxy-2,2-dimethyl-2,3-dihydro-1H-inden-1-yl)carbamate], the pIC50 was 7.35.

With `CCc1cccc(-c2cc3c(cc2OC)C(NC(=O)O[C@@H]2CN4CCC2CC4)C(C)(C)C3)c1` (stereo partly drawn) [Example 334, (S)-quinuclidin-3-yl (5-(3-ethylphenyl)-6-methoxy-2,2-dimethyl-2,3-dihydro-1H-inden-1-yl)carbamate], the pIC50 was 7.68. Compared with the last compound, the pIC50 is 0.33 log units higher.

Consider `COc1cc2c(cc1-c1cccc(CC(C)C)c1)CC(C)(C)C2NC(=O)O[C@@H]1CN2CCC1CC2` (stereo partly drawn) [Example 335, (S)-quinuclidin-3-yl (5-(3-isobutylphenyl)-6-methoxy-2,2-dimethyl-2,3-dihydro-1H-inden-1-yl)carbamate], for which the negative logarithm of the IC50 (pIC50) was 7.30.

For `COc1cc2c(cc1-c1cccc(C(C)C)c1)CC(C)(C)C2NC(=O)O[C@@H]1CN2CCC1CC2` (stereo partly drawn) [Example 336, (S)-quinuclidin-3-yl (5-(3-isopropylphenyl)-6-methoxy-2,2-dimethyl-2,3-dihydro-1H-inden-1-yl)carbamate], the negative logarithm of the IC50 (pIC50) was 7.32. This pIC50 and that of the compound before are within 0.2 log units of each other.

Turning to `COc1cc2c(cc1-c1cccc(C(C)(C)C)c1)CC(C)(C)C2NC(=O)O[C@@H]1CN2CCC1CC2` (stereo partly drawn) [Example 337, (S)-quinuclidin-3-yl (5-(3-(tert-butyl)phenyl)-6-methoxy-2,2-dimethyl-2,3-dihydro-1H-inden-1-yl)carbamate], the pIC50 was 7.19.

`COc1cccc(-c2cc3c(cc2OC)C(NC(=O)O[C@@H]2CN4CCC2CC4)C(C)(C)C3)c1` (stereo partly drawn) [Example 338, (S)-quinuclidin-3-yl (6-methoxy-5-(3-methoxyphenyl)-2,2-dimethyl-2,3-dihydro-1H-inden-1-yl)carbamate] showed a pIC50 of 7.27.

The compound `CCOc1cccc(-c2cc3c(cc2OC)C(NC(=O)O[C@@H]2CN4CCC2CC4)C(C)(C)C3)c1` (stereo partly drawn) [Example 339, (S)-quinuclidin-3-yl (5-(3-ethoxyphenyl)-6-methoxy-2,2-dimethyl-2,3-dihydro-1H-inden-1-yl)carbamate] gave a negative-log IC50 (pIC50) of 7.20.

Compound `CCCOc1cccc(-c2cc3c(cc2OC)C(NC(=O)O[C@@H]2CN4CCC2CC4)C(C)(C)C3)c1` (stereo partly drawn) [Example 340, (S)-quinuclidin-3-yl (6-methoxy-2,2-dimethyl-5-(3-propoxyphenyl)-2,3-dihydro-1H-inden-1-yl)carbamate] had a pIC50 of 7.36.

In turn, `COc1cc2c(cc1-c1cccc(OC(C)C)c1)CC(C)(C)C2NC(=O)O[C@@H]1CN2CCC1CC2` (stereo partly drawn) [Example 341, (S)-quinuclidin-3-yl (5-(3-isopropoxyphenyl)-6-methoxy-2,2-dimethyl-2,3-dihydro-1H-inden-1-yl)carbamate] gave a negative logarithm of the IC50 (pIC50) of 7.21.

As for `CCCCOc1cccc(-c2cc3c(cc2OC)C(NC(=O)O[C@@H]2CN4CCC2CC4)C(C)(C)C3)c1` (stereo partly drawn) [Example 342, (S)-quinuclidin-3-yl (5-(3-butoxyphenyl)-6-methoxy-2,2-dimethyl-2,3-dihydro-1H-inden-1-yl)carbamate], the pIC50 was 7.67.

In the case of `COc1cc2c(cc1-c1cccc(OCC(C)C)c1)CC(C)(C)C2NC(=O)O[C@@H]1CN2CCC1CC2` (stereo partly drawn) [Example 343, (S)-quinuclidin-3-yl (5-(3-isobutoxyphenyl)-6-methoxy-2,2-dimethyl-2,3-dihydro-1H-inden-1-yl)carbamate], the pIC50 is 7.34.

`COc1ccc(OC)c(-c2cc3c(cc2OC)C(NC(=O)O[C@@H]2CN4CCC2CC4)C(C)(C)C3)c1` (stereo partly drawn) [Example 344, (S)-quinuclidin-3-yl (5-(2,5-dimethoxyphenyl)-6-methoxy-2,2-dimethyl-2,3-dihydro-1H-inden-1-yl)carbamate] showed a negative-log IC50 (pIC50) of 7.29. The pIC50 values of the last two compounds are within 0.2 log units of each other.

The compound `COc1cc(OC)cc(-c2cc3c(cc2OC)C(NC(=O)O[C@@H]2CN4CCC2CC4)C(C)(C)C3)c1` (stereo partly drawn) [Example 345, (S)-quinuclidin-3-yl (5-(3,5-dimethoxyphenyl)-6-methoxy-2,2-dimethyl-2,3-dihydro-1H-inden-1-yl)carbamate] gave a pIC50 of 7.34. The pIC50 values of the last two compounds are within 0.2 log units of each other.

Compound `COc1ccc(-c2cc3c(cc2OC)C(NC(=O)O[C@@H]2CN4CCC2CC4)C(C)(C)C3)c(Cl)c1` (stereo partly drawn) [Example 346, (S)-quinuclidin-3-yl (5-(2-chloro-4-methoxyphenyl)-6-methoxy-2,2-dimethyl-2,3-dihydro-1H-inden-1-yl)carbamate] gave a pIC50 of 7.42.

Turning to `CCOc1ccc(-c2cc3c(cc2OC)C(NC(=O)O[C@@H]2CN4CCC2CC4)C(C)(C)C3)cc1F` (stereo partly drawn) [Example 347, (S)-quinuclidin-3-yl (5-(4-ethoxy-3-fluorophenyl)-6-methoxy-2,2-dimethyl-2,3-dihydro-1H-inden-1-yl)carbamate], the pIC50 was 7.33.

As to `COc1cc2c(cc1-c1cc(C)c(OC(C)C)c(C)c1)CC(C)(C)C2NC(=O)O[C@@H]1CN2CCC1CC2` (stereo partly drawn) [Example 348, (S)-quinuclidin-3-yl (5-(4-isopropoxy-3,5-dimethylphenyl)-6-methoxy-2,2-dimethyl-2,3-dihydro-1H-inden-1-yl)carbamate], the pIC50 was 7.36.

`CCc1ccc(-c2cc3c(cc2F)C(NC(=O)O[C@@H]2CN4CCC2CC4)C(C)(C)C3)cc1` (stereo partly drawn) [Example 349, (S)-quinuclidin-3-yl (5-(4-ethylphenyl)-6-fluoro-2,2-dimethyl-2,3-dihydro-1H-inden-1-yl)carbamate] gave a pIC50 of 7.99.

Compound `CCCc1ccc(-c2cc3c(cc2F)C(NC(=O)O[C@@H]2CN4CCC2CC4)C(C)(C)C3)cc1` (stereo partly drawn) [Example 350, (S)-quinuclidin-3-yl (6-fluoro-2,2-dimethyl-5-(4-propylphenyl)-2,3-dihydro-1H-inden-1-yl)carbamate] showed a pIC50 of 8.35.

`CC(C)c1ccc(-c2cc3c(cc2F)C(NC(=O)O[C@@H]2CN4CCC2CC4)C(C)(C)C3)cc1` (stereo partly drawn) [Example 351, (S)-quinuclidin-3-yl (6-fluoro-5-(4-isopropylphenyl)-2,2-dimethyl-2,3-dihydro-1H-inden-1-yl)carbamate] showed a pIC50 of 8.13.

For `CC(C)Cc1ccc(-c2cc3c(cc2F)C(NC(=O)O[C@@H]2CN4CCC2CC4)C(C)(C)C3)cc1` (stereo partly drawn) [Example 352, (S)-quinuclidin-3-yl (6-fluoro-5-(4-isobutylphenyl)-2,2-dimethyl-2,3-dihydro-1H-inden-1-yl)carbamate], the pIC50 is 8.24.

With `CC(C)(C)c1ccc(-c2cc3c(cc2F)C(NC(=O)O[C@@H]2CN4CCC2CC4)C(C)(C)C3)cc1` (stereo partly drawn) [Example 353, (S)-quinuclidin-3-yl (5-(4-(tert-butyl)phenyl)-6-fluoro-2,2-dimethyl-2,3-dihydro-1H-inden-1-yl)carbamate], the pIC50 is 7.90. Against the preceding compound, the pIC50 is 0.34 log units lower.

As to `CC1(C)Cc2cc(-c3ccc(C4CC4)cc3)c(F)cc2C1NC(=O)O[C@@H]1CN2CCC1CC2` (stereo partly drawn) [Example 354, (S)-quinuclidin-3-yl (5-(4-cyclopropylphenyl)-6-fluoro-2,2-dimethyl-2,3-dihydro-1H-inden-1-yl)carbamate], the pIC50 was 8.23.

`COc1ccc(-c2cc3c(cc2F)C(NC(=O)O[C@@H]2CN4CCC2CC4)C(C)(C)C3)cc1` (stereo partly drawn) [Example 355, (S)-quinuclidin-3-yl (6-fluoro-5-(4-methoxyphenyl)-2,2-dimethyl-2,3-dihydro-1H-inden-1-yl)carbamate] gave a negative logarithm of the IC50 (pIC50) of 7.20.

The record behind these values is patent US12522602B2, “Derivatives having 2,3-dihydro-1H-indene or 2,3-dihydrobenzofuran moiety or pharmaceutically acceptable salt thereof and pharmaceutical compositions comprising the same” (YUHAN CORPORATION, priority 2019, dated 2026).
